Experimental data published in patent US20220288048A1, “PIMAVANSERIN FOR TREATING SCHIZOPHRENIA OR FOR TREATING PSYCHOSIS SECONDARY TO NEURODEGENERATIVE DISORDERS OR DEPRESSIVE DISORDER” (ACADIA Pharmaceuticals Inc., priority 2019, published 2022).

System: adult schizophrenia patients with a persistent inadequate response to their existing antipsychotic therapy
Experiment: 6-week study of pimavanserin or placebo added to existing antipsychotic treatment: efficacy rating scales
Format: in vivo, human
Procedure: The effect of pimavanserin as an adjunctive treatment in adult schizophrenia patients with a persistent inadequate response (i.e., partial responders) to their existing antipsychotic therapy was tested. 396 patients with moderate-to-severe psychotic symptoms were randomized to receive either pimavanserin or placebo added to existing antipsychotic treatment. […] Dosages of background oral antipsychotics could not be changed within four weeks of screening and dosages of long-acting injectables (LAI) could not be changed within 16 weeks of screening. […] Patients were administered a daily dose of pimavanserin or a placebo for six weeks. The dose started at 20 mg and could be adjusted to 34 mg or 10 mg between weeks 1 and 3. The majority of patients (56%) completed the study at the highest dose level. Patients were evaluated at baseline and on a weekly basis according to the clinical rating scale Positive and Negative Symptom Scale (PANSS). The PANSS is a 30-item, 7-point rating system that was developed to cover a range of negative symptoms not adequately measured by the Brief Psychiatric Rating Scale. It has sections that specifically measure positive symptoms, negative symptoms, and general psychopathology in schizophrenic subjects. The PANSS is widely used in trials of antipsychotic drug treatment, and has been formally validated for such use. A subset of 5 of the PANSS factors, the […] factors, were also evaluated. Other clinical rating scales that were assessed were the Clinical Global Impression Scale (CGI), Personal and Social Performance Scale (PSP), drug attitude inventory (DAI-10), Karolinska Sleepiness Scale (KSS), Calgary Depression Scale for Schizophrenia (CDSS), 36-item Short Form Physical Health evaluation ([…]) and 36-item Short Form Mental Health evaluation […].

[1] = FAS population, W6, Missing as non-Rsp
[2] = Full Analysis Set, OC, Week 6, listed as PIM
[3] = Full Analysis Set, added to existing antipsychotic
[4] = Sensitivity: MI in FAS, ANCOVA, W6
[5] = Sensitivity: MI in RAND, ANCOVA, W6
[6] = Sensitivity: OC in PP, MMRM, W6

`CC(C)COc1ccc(CNC(=O)N(Cc2ccc(F)cc2)C2CCN(C)CC2)cc1` [Pimavanserin, N-(4-Fluorophenylmethyl)-N-(1-methylpiperidin-4-yl)-N′-(4-(2-methylpropyloxy)phenylmethyl)carbamide] was tested, and the “CGI-I 1 or 2 Rsp, (%)” value [1] was “(35.2) %”, the “CGI-I 1 or 2 Rsp, Diff in % (PIM − PBO)” value [1] was 2.1% and the “PANSS >= 20% Rsp, (%)” value [1] was “(56.5) %”. For the same molecule, the “PANSS >= 20% Rsp, Diff in % (PIM − PBO)” value [1] was 5.9%, the “PANSS >= 30% Rsp, (%)” value [1] was “(36.8) %” and the “PANSS >= 30% Rsp, Diff in % (PIM − PBO)” value [1] was 2.6%. For the same molecule, the “CGI-I 1 or 2 Rsp, (%)” value (FAS population, W6, OC) was “(39.3) %”, the “CGI-I 1 or 2 Rsp, Diff in % (PIM − PBO)” value (FAS population, W6, OC) was 4.9% and the “CGI-I no Chg or Worsened, (%)” value (FAS population, W6, OC) was “(27.2) %”. For the same molecule, the “CGI-I no Chg or Worsened, Diff in % (PIM − PBO)” value (FAS population, W6, OC) was −0.9%, the “PANSS >= 20% Rsp, (%)” value (FAS population, W6, OC) was “(63.0) %” and the “PANSS >= 20% Rsp, Diff in % (PIM − PBO)” value (FAS population, W6, OC) was 10.6%. For the same molecule, the “PANSS >= 30% Rsp, (%)” value (FAS population, W6, OC) was “(41.0) %”, the “PANSS >= 30% Rsp, Diff in % (PIM − PBO)” value (FAS population, W6, OC) was 5.6% and the “CGI-S score, Change from Baseline to Week 6, Mean (SE)” value (Full Analysis Set) was −0.8 (0.06). The “PANSS Marder negative factor score, Change from Baseline to Week 6, Mean (SE)” value (Full Analysis Set) was −3.3 (0.31), the “PANSS Marder negative factor score, Week 6, Mean (SE)” value (Full Analysis Set) was 19.2 (0.38) and the “PANSS negative symptoms scale sub-score, Change from Baseline to Week 6, Mean (SE)” value (Full Analysis Set) was −2.8 (0.28). For the same molecule, the “PANSS negative symptoms scale sub-score, Week 6, Mean (SE)” value (Full Analysis Set) was 20.3 (0.35), the “CGI-S score, Diff in MMRM LSM (SE), pimavanserin − placebo” value (Full Analysis Set, OC, Week 6) was −0.1 (0.08) and the “CGI-S score, Effect Size (Cohen's d)” value (Full Analysis Set, OC, Week 6) was 0.200. The “PANSS Marder negative factor score, Diff in MMRM LSM (SE), pimavanserin − placebo” value (Full Analysis Set, OC, Week 6) was −0.9 (0.41), the “PANSS Marder negative factor score, Effect Size (Cohen's d)” value (Full Analysis Set, OC, Week 6) was 0.218 and the “PANSS negative symptoms scale sub-score, Diff in MMRM LSM (SE), pimavanserin − placebo” value (Full Analysis Set, OC, Week 6) was −0.7 (0.37). The “PANSS negative symptoms scale sub-score, Effect Size (Cohen's d)” value (Full Analysis Set, OC, Week 6) was 0.206, the “PANSS total score, Diff in MMRM LSM (SE), pimavanserin − placebo” value (Full Analysis Set, OC, Week 6) was −2.1 (1.24) and the “PANSS total score, Effect Size (Cohen's d)” value (Full Analysis Set, OC, Week 6) was 0.173. The “CGI-S score, Diff in MMRM LSM (SE), pimavanserin − placebo” value [2] was −0.1, the “CGI-S score, Effect Size (Cohen's d)” value [2] was 0.20 and the “PANSS Marder negative factor score, Diff in MMRM LSM (SE), pimavanserin − placebo” value [2] was −0.9. The “PANSS Marder negative factor score, Effect Size (Cohen's d)” value [2] was 0.22, the “PANSS negative symptoms scale sub-score, Diff in MMRM LSM (SE), pimavanserin − placebo” value [2] was −0.7 and the “PANSS negative symptoms scale sub-score, Effect Size (Cohen's d)” value [2] was 0.21. The “PANSS total score, Diff in MMRM LSM (SE), pimavanserin − placebo” value [2] was −2.1, the “PANSS total score, Effect Size (Cohen's d)” value [2] was 0.17 and the “CGI-S score, Week 6, Mean (SE)” value [3] was 3.8 (0.07). For the same molecule, the “PANSS total score, Change from Baseline to Week 6, Mean (SE)” value [3] was −15.3 (0.93), the “PANSS total score, Week 6, Mean (SE)” value [3] was 72.7 (1.04) and the “Positive or negative symptoms, difference between treatment groups” value (North America) was “No significant differences”. The “Clinical Global Impressions-Severity, LS Mean Change at Week 6” value (North America subgroup) was −0.7, the “PANSS Total Score, LS Mean Change at Week 6” value (North America subgroup) was −14.2 and the “Clinical Global Impressions-Severity, Cohen's d Effect Size” value (North America subgroup, Week 6) was −0.144. The “Clinical Global Impressions-Severity, LS Mean (SE) Difference” value (North America subgroup, Week 6) was 0.1 (0.15), the “PANSS Total Score, Cohen's d Effect Size” value (North America subgroup, Week 6) was −0.229 and the “PANSS Total Score, LS Mean (SE) Difference” value (North America subgroup, Week 6) was 2.6 (2.74). The “PANSS Total, LSM Change from Baseline at W6” value (“PANSS Total, LSM Change” for short) (Sensitivity: MI in FAS, ANCOVA) was −15.3, the “PANSS Total, Effect Size” value [4] was 0.16 and the “PANSS Total, Treatment group Comparison (PIM-PBO) LSM” value (shortened to “PANSS Total … (PIM-PBO) LSM”) [4] was −1.9. The “PANSS Total, LSM Change” value (Sensitivity: MI in RAND, ANCOVA) was −15.2, the “PANSS Total, Effect Size” value [5] was 0.15 and the “PANSS Total … (PIM-PBO) LSM” value [5] was −1.9. For the same molecule, the “PANSS Total, LSM Change” value (Sensitivity: OC ANCOVA) was −15.3, the “PANSS Total, Effect Size” value (Sensitivity: OC ANCOVA, W6) was 0.16 and the “PANSS Total … (PIM-PBO) LSM” value (Sensitivity: OC ANCOVA, W6) was −1.9. For the same molecule, the “PANSS Total, LSM Change” value (Sensitivity: OC in PP, MMRM) was −15.6, the “PANSS Total, Effect Size” value [6] was 0.19 and the “PANSS Total … (PIM-PBO) LSM” value [6] was −2.3.
